In paper PMC5534107, “Sensitization of ASIC3 by proteinase-activated receptor 2 signaling contributes to acidosis-induced nociception” (Journal of Neuroinflammation, 2017):

Legend:
[1] = test system: ASIC3 currents in CHO cells co-expressing ASIC3 and PAR2; test: Whole-cell patch clamp of proton-gated currents (I pH 6.6) in CHO cells co-expressing ASIC3 and PAR2; type: cell-based, Chinese hamster
Experimental: ASIC3, ASIC1a, ASIC1b, ASIC2b, and PAR2 complementary DNAs (cDNAs) were used for heterologous expression in CHO cells as described previously (Wang et al., 2013). In brief, CHO cells were cultured at 37 °C in a humidified atmosphere of 5% CO2 and […] and passaged twice a week. Transient transfection of CHO cells was performed using HilyMax liposome transfection reagent (Dojindo Laboratories). CHO cells were maintained in F-12 Nutrient Mixture (added 1.176 g of NaHCO3/L medium) supplemented with 10% fetal bovine serum and 1% gluta-MAXTM-1 (100×; Invitrogen). When ASIC3 and PAR2 cDNAs were co-transfected, the ratio was kept at 1:1. All plasmids used contained, in addition to the desired ASIC3 cDNA, the coding sequence for enhanced green fluorescent protein to aid identification of transfected cells. Electrophysiological measurements were performed 24–48 h after transfection.
Whole-cell patch clamp and voltage clamp recordings were carried out at room temperature (22–25 °C) using a MultiClamp-700B amplifier and Digidata-1440A A/D converter (Axon Instruments, CA, USA). Recording pipettes were pulled using a Sutter P-97 puller (Sutter Instruments, CA, USA). The micropipettes were filled with internal solution containing (mM) KCl 140, MgCl2 2.5, HEPES 10, EGTA 11, and ATP 5; its pH was adjusted to 7.2 with KOH, and osmolarity was adjusted to 310 mOsm/L with sucrose. Cells were bathed in an external solution containing (mM) NaCl 150, KCl 5, CaCl2 2.5, MgCl2 2, HEPES 10, D-glucose 10; its osmolarity was adjusted to 330 mOsm/L with sucrose and its pH to 7.4. The resistance of the recording pipette was in the range of 3–6 MΩ. A small patch of membrane underneath the tip of the pipette was aspirated to form a giga seal, and then, a negative pressure was applied to rupture it, thus establishing a whole-cell configuration. The series resistance was compensated for by 70–80%. The adjustment of capacitance compensation was also done before recording the membrane currents. The membrane voltage was maintained at −60 mV in all voltage clamp experiments unless otherwise specified. Current clamp recordings were obtained by switching to current clamp mode after a stable whole-cell configuration was formed in voltage clamp mode. Only cells with a stable resting membrane potential (more negative than −50 mV) were used in the study. Signals were sampled at 10 to 50 kHz and filtered at 2 to 10 kHz, and the data were stored in compatible PC computer for off-online analysis using the pCLAMP 10 acquisition software (Axon Instruments, CA, USA).
Drugs purchased from Sigma and used in the experiments include hydrochloric acid, 2-furoyl-LIGRLO-NH2 (a PAR2-activating peptide (PAR2-AP)), trypsin, FSLLRY-NH2, APETx2, and capsazepine. Different pH values were configured with hydrochloric acid and external solution. All drugs were dissolved daily in the external solution just before use and held in a linear array of fused silica tubes (o.d./i.d. = 500 μm/200 μm) connected to a series of independent reservoirs. The application pipette tips were positioned ∼30 μm away from the recorded neurons. The application of each drug was driven by gravity and controlled by the corresponding valve, and rapid solution exchange could be achieved within about 100 ms by shifting the tubes horizontally with a PC-controlled micromanipulator. Cells were constantly bathed in normal external solution flowing from one tube connected to a larger reservoir between drug applications. In some experiments where GDP-β-S (Sigma), U-73122(Sigma), and GF109203X (RBI) were applied for intracellular dialysis through recording patch pipettes, they were dissolved in the internal solution before use. To ensure that the cell interior was perfused with the dialysis drug, there was at least a 30-min interval between the establishment of whole-cell access and the current measurement. […]

rats = test: Nociceptive behavior (flinches) induced by intraplantar acetic acid in rats; type: in vivo, rat; conditions: capsazepine 100 μM, n = 10
Experimental: Rats were placed in a 30 × 30 × 30 cm Plexiglas chamber and allowed to habituate for at least 30 min before nociceptive behavior experiments. A blind experiment was carried out. Separate groups of rats were coded and pretreated with 20 μl capsazepine (100 μM) together with vehicle and different dosages of PAR2-AP, FSLLRY-NH2, or APETx2 in the ipsilateral hind paw before injection of acetic acid. […] And nociceptive behavior (that is, number of flinches) was counted over a 5-min period starting immediately after the injection.
We finally ascertain whether PAR2-AP facilitates pain-related behaviors through interacting with ASIC3 in vivo. Acetic acid (0.6%) was injected into the right hind paws of rats and measured the number of flinches that the animals spent licking and/or lifting the injected paw. Intraplantar injection of acetic acid elicits an intense flinch/shaking response which mainly occurred during 0–5 min after injection of acetic acid. […] However, the low dose (1 μg) of PAR2-AP had no effect on the acidosis-induced nocifensive behaviors (Bonferroni’s post hoc test, P > 0.1, n = 10). In addition, the exacerbating effect of 10 μg PAR2-AP on acidosis-induced nocifensive behaviors was blocked by co-administration of 20 μg FSLLRY-NH2, a selective PAR2 antagonist (Bonferroni’s post hoc test, P < 0.01, compared with 10 μg PAR2-AP alone, n = 10; Fig. 6a).

2-furoyl-LIGRLO-NH2 [PAR2-AP]
maximum effect (potentiation of ASIC3 currents) ([1]; 10^−4 M, pre-applied 1 min, I pH 6.6, n = 9): 66.6 ± 7.5% | increase of peak amplitude of I pH 6.6 after pretreatment with agonist alone ([1]; 10^−5 M for 1 min, n = 10): 61.6 ± 4.6% | EC50 ([1]; I pH 6.6 for 5 s, PAR2-AP 10^−9–10^−4 M pre-applied 1 min, −60 mV, mean ± SEM of 8 to 10 cells, read-out: EC50 of PAR2-AP for potentiation of peak amplitude of proton-gated (ASIC3) currents): 290 nM | threshold pH value of proton concentration–response curve in presence vs absence of PAR2-AP ([1]; PAR2-AP 10^−5 M): no significant difference | increase in the maximal current response to protons ([1]; PAR2-AP 10^−5 M pre-applied, proton concentration–response curve, 8 to 10 cells): 58.7 ± 3.8% | Hill coefficient of proton concentration–response curve in the presence of PAR2-AP ([1]; PAR2-AP 10^−5 M, 2.36 ± 0.13 in its absence, P > 0.1): 2.28 ± 0.15 | Hill coefficient of steady-state desensitization with PAR2-AP ([1]; PAR2-AP 10^−5 M, 3.58 ± 0.29 without): 3.65 ± 0.35 | pH50 (pH for half-maximal current response) with PAR2-AP pretreatment ([1]; PAR2-AP 10^−5 M, 6.70 ± 0.02 without, P > 0.1): 6.71 ± 0.04 | pH50 for steady-state desensitization in the presence of PAR2-AP ([1]; PAR2-AP 10^−5 M, conditioning pH 7.6 to 6.6 for 2 min, then pH 6.0, 7.16 ± 0.01 without, P < 0.05, 6 to 8 cells): 7.05 ± 0.02 | Hill coefficient of the concentration–response curve for PAR2-AP ([1]; potentiation of I pH 6.6, pre-applied 1 min): 0.76 | effect on acidosis-induced nocifensive behaviors (number of flinches), low dose (rats; PAR2-AP 1 μg intraplantar, 5 min before acetic acid 0.6%, 20 μl, flinches over 5 min, P > 0.1): no effect | acetic acid-induced number of flinches vs acetic acid alone, medium dose (rats; PAR2-AP 3 μg intraplantar, P < 0.05): significantly greater | acetic acid-induced number of flinches vs acetic acid alone, high dose (rats; PAR2-AP 10 μg intraplantar, P < 0.01): significantly greater
